From ChEMBL document CHEMBL3243944, “Synthesis of spiro[isobenzofuran-1(3H),4'-piperidines] as potential central nervous system agents. 2. Compounds containing a heteroatom attached to nitrogen” (1977)

Tested on: Mus musculus
Assay: Antitetrabenazine activity in ip dosed CD1 mouse assessed as inhibition of tetrabenazine-induced ptosis challenged with tetrabenazine after 30 mins later and after another 30 mins of drug treatment
Format: functional
Conditions: 0.5 h

Row | SMILES | ED50
1 | ON1CCC2(CC1)OC(c1ccccc1)c1ccccc12 (stereo unspecified) | 1.4 mg/kg
2 | NN1CCC2(CC1)OC(c1ccccc1)c1ccccc12 (stereo unspecified) | 6.8 mg/kg
3 | COc1ccc(C2OC3(CCN(O)CC3)c3ccccc32)cc1 (stereo unspecified) | 3.5 mg/kg
4 | ON1CCC2(CC1)OC(c1ccc(F)cc1)c1ccccc12 (stereo unspecified) | 4 mg/kg
5 | CC(C)NN1CCC2(CC1)OC(c1ccccc1)c1ccccc12 (stereo unspecified) | > 25 mg/kg
6 | CNCCCN1c2ccccc2CCc2ccccc21 [DESIPRAMINE] | 0.8 mg/kg
7 | O=NN1CCC2(CC1)OC(c1ccccc1)c1ccccc12 (stereo unspecified) | > 25 mg/kg
8 | COc1ccc2c(c1)C1(CCN(O)CC1)OC2c1ccccc1 (stereo unspecified) | 4.7 mg/kg
9 | c1ccc(C2OC3(CCNCC3)c3ccccc32)cc1 (stereo unspecified) | 0.5 mg/kg
10 | CN(C)CCCN1c2ccccc2CCc2ccccc21 [IMIPRAMINE] | 1.3 mg/kg
11 | O=C(ON1CCC2(CC1)OC(c1ccccc1)c1ccccc12)c1ccccc1 (stereo unspecified) | > 25 mg/kg
